Measurements published in the NIST ThermoML archive (doi:10.1021/acs.jced.6b00951).

Details: 100.3 kPa, Liquid; for viscosity: Capillary tube (Ostwald / Ubbelohde) method; for mass density: Vibrating tube method

O [water]
Details	mass density [kg/m3]	viscosity [mPa·s]
288.15 K	–	1.139
293.15 K	–	1.002
298.15 K	–	0.8897
303.15 K	–	0.7988
308.15 K	–	0.7184
313.15 K	–	0.6525
318.15 K	–	0.596
323.15 K	988.04	0.547
328.15 K	985.69	0.5043
